# Patent publication US5652334A, “Method for design of substances that enhance memory and improve the quality of life” (City of Hope, priority 1993, dated 1997)
# Ends that are not written are not given here. Peptide text beside a SMILES is read from it.
# Experiments:
# [1] = test system: CD-1 male mice; assay: Footshock active avoidance training (FAAT) in T-maze, amnesia test in well-trained mice, post-training ICV injection; type: in vivo; conditions: for amnestic effect on retention of FAAT: 6.14 nmol of peptide per mouse (except dose-response curves), well-trained mice, retention tested one week later; for amnestic efficacy/potency compared with another peptide: dose-response curves / FIG. 19
# Description: (§1) Test Animals. After 1 week in the laboratory, CD-1 male mice obtained from Charles River Breeding Laboratories were caged individually 24-28 hours prior to training and remained singly housed until retention was tested one week later. Animal rooms were on a 12 hour light/dark cycle with lights going on at the hour of 0600. Median body weight was 35 g, with a range of 33-38 g. Mice were assigned randomly to groups of 15 in the experiments reported in FIGS. 1-18 and groups of 10 for the dose-response curves (FIGS. 19 and 20) and were trained and tested between the hours of 0700 and 1500.
# (§2) Peptides Tested. With the exception of Val Phe and Phe Val from Sigma, all peptides used in these studies were synthesized and analyzed to establish purity by standard methods at the Beckman Research Institute. Peptides were dissolved in: (1) saline; (2) 8% vol/vol dimethyl sulfoxide; (3) glacial acetic acid neutralized with […]; or (4) NaOH neutralized with HCl.
# With exception of dose-response curves, the experiments reported below tested whether or not there was an amnestic effect at 6.14 nmol of peptide per mouse.
# (§3) Apparatus, Training and Testing Procedures. The T-maze used for footshock active avoidance training (FAAT) consisted of a black plastic alley (46 cm long) with a start box at one end and two goal boxes (17.5 cm long) at the other. The start box was separated from the alley by a plastic guillotine door that prevented movement down the alley until training began. The alley was 12.5 cm deep and 9.8 cm wide. An electrifiable stainless steel rod floor ran throughout the maze.
# (§4) Mice were not permitted to explore the maze before training. A block of training trials began when a mouse was placed in the start box. The guillotine door was raised and a muffled doorbell-type buzzer sounded simultaneously; footshock was 5 seconds later through a scrambled grid floor shocker (Colbourn Instruments, Model E13-08). The goal box first entered during the first set of trials was designated as "incorrect", and footshock was continued until the mouse entered the other goal box, which in all subsequent trials was designated "correct" for the particular mouse. At the end of each group of trials, the mouse was removed to its home cage.
# As training proceeded, a mouse made one of two types of responses. A response latency longer than 5 seconds was classed as an escape from the footshock. A response latency less than or equal to 5 seconds was considered an avoidance, since the mouse avoided receiving a footshock. Two exclusion criteria were applied to reduce learning variability among mice, as follows. On the first training trials, mice with escape latencies greater than 20 seconds were discarded. Mice not having at least one errorless escape latency between 1.5 and 3.5 seconds on training trials 3 or 4 were excluded. […] Mice received five such training trials. One week after training and post-trial administration of vehicle alone or vehicle containing test substance, T-maze training was resumed until each mouse made five avoidance responses in six consecutive training trials (trials to criterion). The recall score was taken to be the percentage of tested mice remembering original training.
# In these instances, training was performed under conditions that tend to maximize learning (sound intensity, 65 decibels; footshock current, 0.35 mA; intertrial interval, 45 seconds).
# [2] = test system: CD-1 male mice; assay: FAAT in T-maze, memory-enhancement test in weakly trained mice (poor retention in vehicle controls), post-training ICV injection; type: in vivo; conditions: for Lowest Concentration For Significant Memory Enhancement: Table 1
# Description: as §1
# as §2, with “HCl. […] Analysis of variance showing insignificant differences among the latter, the value for the most frequently employed (No. 2 above) was used for comparison with groups receiving test peptides.” for “HCl.”
# as §3, §4
# As training proceeded, a mouse made one of two types of responses. A response latency longer than 5 seconds was classed as an escape from the footshock. A response latency less than or equal to 5 seconds was considered an avoidance, since the mouse avoided receiving a footshock. Two exclusion criteria were applied to reduce learning variability among mice, as follows. On the first training trials, mice with escape latencies greater than 20 seconds were discarded. Mice not having at least one errorless escape latency between 1.5 and 3.5 seconds on training trials 3 or 4 were excluded. The total exclusions were fewer than 15%. Mice received five such training trials. One week after training and post-trial administration of vehicle alone or vehicle containing test substance, T-maze training was resumed until each mouse made five avoidance responses in six consecutive training trials (trials to criterion). The recall score was taken to be the percentage of tested mice remembering original training.
# Well-trained animals (recall score approximately 80%) were used to determine whether or not administered substances could cause amnesia. In these instances, training was performed under conditions that tend to maximize learning (sound intensity, 65 decibels; footshock current, 0.35 mA; intertrial interval, 45 seconds). In the cases in which it was desired to detect whether or not there was an enhancing effect on memory, training conditions were adjusted so that the initial recall score in vehicle controls was only approximately 20% (sound intensity, 55 decibels; footshock current, 0.30 mA; intertrial interval, 30 seconds). […]
# [3] = test system: CD-1 male mice; conditions: cited from earlier work; for amnestic effect on retention of FAAT (earlier publications): post-training ICV, references 1 and 12
# [4] = references 13-16; cited from earlier work
# [5] = test system: hippocampal neurons in culture; conditions: reference 17; cited from earlier work
compound,measurement,setting,value
NC(=O)CC[C@H](N)C(=O)N[C@@H](Cc1ccccc1)C(=O)N[C@@H](Cc1ccccc1)C(=O)NCC(=O)O [Gln Phe Phe Gly] (H-QFFG-OH),amnestic effect on retention of FAAT,[1]; post-training ICV,amnestic
same,dose at which statistically significant memory enhancement found,[2]; weakly trained animals,10^-14 moles/mouse
same,memory-enhancing potency compared with other peptides,[2]; weakly trained mice,by far the most potent
same,Lowest Concentration For Significant Memory Enhancement,[2]; weakly trained mice,6 × 10^-14 Moles/Mouse
N[C@@H](Cc1ccccc1)C(=O)N[C@@H](Cc1ccccc1)C(=O)O [Phe Phe] (H-Phe-Phe-OH),amnestic effect on retention of FAAT,[1]; post-training ICV,amnestically ineffective
same,mean trials to criterion ±SEM,"[1]; post-training ICV, 6.14 nmol per mouse, vehicle 6.80±0.21",7.0±0.42
CC(C)[C@H](N)C(=O)N[C@@H](Cc1ccccc1)C(=O)N[C@@H](Cc1ccccc1)C(=O)O [Val Phe Phe] (H-Val-Phe-Phe-OH),amnestic efficacy/potency compared with another peptide,[1]; ICV,not significantly different from that of the β-A4 homologue [Gln^11 ]β-(1-28)
same,dose at which amnesia first noted,"[1]; ICV, well-trained animals",3×10^-9 moles/mouse
same,amnestic effect on retention of FAAT,[1]; post-training ICV,amnestic
same,dose at which statistically significant memory enhancement found,[2]; weakly trained animals,1.9×10^-11 moles/mouse
same,memory-enhancing effect,[2]; weakly trained animals,memory enhancer
same,Lowest Concentration For Significant Memory Enhancement,[2]; weakly trained mice,1.9 × 10^-11 Moles/Mouse
CC(C)[C@H](N)C(=O)N[C@@H](Cc1ccccc1)C(=O)N[C@H](C(=O)O)[C@@H](C)O [Val Phe Thr] (H-Val-Phe-Thr-OH),amnestic effect on retention of FAAT,[1]; post-training ICV,amnestic
His Ser Asp Ala Val Phe Thr Asp Asn Tyr Thr Arg Leu Lys Gln Met Ala Val Lys Lys Tyr Leu Asn Ser Ile Leu Asn-NH2 (HSDAVFTDNYTRLKQMAVKKYLNSILN-NH2) [VIP],amnestic effect on retention of FAAT (earlier publications),[3],amnestic
KLVFFAE [Lys Leu Val Phe Phe Ala Glu],amnestic effect on retention of FAAT,[1]; post-training ICV,not amnestic
Pro Arg Pro Gly Pro Gln Gln Phe Phe Gly Leu Met-NH2 (PRPGPQQFFGLM-NH2) [Substance Pro],memory retention (literature),[4],enhance memory retention
same,effect on trophic and toxic effects of β-A4 on hippocampal neurons,[5],counteract trophic and toxic effects of B-A4 on hippocampal neurons in culture
VFFAE [Val Phe Phe Ala Glu],amnestic efficacy/potency compared with another peptide,[1]; ICV,lesser potency of Val Phe Phe Ala Glu than that of Val Phe Phe
same,amnestic effect on retention of FAAT,[1]; post-training ICV,amnestic
VFFAEDVGSNK [β-(18-28)],amnestic effect on retention of FAAT (earlier publications),[3],amnestic
"β-(1-18): β-A4 fragment as printed in b47; probably the β-(1-28) homologue of reference 1 (DAEFRHDSGYEVHHQKLV; Amyloid-beta protein 42; UniProt P05067 672-689, looked up, fragment)",dose at which active (amnestic),"[3]; ICV, reference 1",1.5 nmol per mouse
